Some test systems named below: SF-295 CNS; HT29 colon; CAKI-1 renal; COLO 205 colon; MDA-MB-435; UACC-257 melanoma; NCI-H226 lung; SW-620 colon; RPMI-8226 leukemia; NCI-H23 lung.
Common to all, as to assay: growth of human tumour cells (NCI), 48 h

We go through ten molecules from PubChem BioAssay (NCI).

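Cells were grown in 96-well plates and exposed to each compound for 48 hours at five concentrations; endpoints were interpolated linearly between bracketing concentrations, or set to the highest concentration if not reached. GI50 marks 50% less growth. TGI: concentration producing complete growth inhibition.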 Bounds are passed on as bounds.

On to `COc1ccc2c(c1)C(=O)/C(=C/c1cccc(OCC(=O)c3ccc([N+](=O)[O-])cc3)c1)CO2`, for which the GI50 with SF-295 CNS is 2.26 µM; in the experiment with HT29 colon, 1.93 µM; in the experiment on CAKI-1 renal, 3.85 µM; with COLO 205 colon, 2.74 µM; in the experiment with MDA-MB-435 it was 2.32 µM; in the experiment on UACC-257 melanoma, 3.73 µM. The GI50 was 7.06 µM in the experiment on NCI-H226 lung, 1.45 µM with SW-620 colon, 1.13 µM in the experiment with RPMI-8226 leukemia and 2.52 µM with NCI-H23 lung. Also, the TGI was determined as 7.1 µM in the experiment on SF-295 CNS; 4.6 µM with HT29 colon; 10.4 µM with CAKI-1 renal; 6.33 µM in the experiment on COLO 205 colon; 7.11 µM in the experiment with MDA-MB-435; 10.2 µM with UACC-257 melanoma. Moreover, the TGI in the experiment with NCI-H226 lung came to 23.3 µM; with SW-620 colon, 2.96 µM; with NCI-H23 lung, 6.33 µM.

Take `O=c1oc2ccc(I)cc2c(=O)n1-c1ccc(I)cc1F`: the GI50 in the experiment with SF-295 CNS was 1.77 µM; in the experiment on HT29 colon it was 3.43 µM; in the experiment on CAKI-1 renal it was 0.308 µM; in the experiment with COLO 205 colon, 4.88 µM; with MDA-MB-435, 0.586 µM; with UACC-257 melanoma, 0.522 µM. For the same molecule, the GI50 is 1.47 µM with NCI-H226 lung, 0.821 µM in the experiment with SW-620 colon, 0.366 µM in the experiment on RPMI-8226 leukemia and 0.476 µM with NCI-H23 lung. Moreover, the TGI came to 3.54 µM with SF-295 CNS; 15.3 µM in the experiment on HT29 colon; 2.53 µM with CAKI-1 renal; 17.8 µM with COLO 205 colon; 5.6 µM in the experiment with MDA-MB-435; 5.6 µM in the experiment on UACC-257 melanoma. For the same molecule, the TGI in the experiment on NCI-H226 lung was 5.88 µM; with SW-620 colon it was 13.1 µM; with RPMI-8226 leukemia, 1.99 µM; in the experiment on NCI-H23 lung, 4.39 µM.

Consider `C=C1C(=O)O[C@H]2[C@H]1CC/C(CNC(=O)C(C)c1ccc(CC(C)C)cc1)=C\CC[C@@]1(C)O[C@@H]21` (stereo partly drawn), for which the GI50 with SF-295 CNS is 3.45 µM; in the experiment on HT29 colon, 1.79 µM; in the experiment on CAKI-1 renal, 1.69 µM; in the experiment on COLO 205 colon, 1.93 µM; in the experiment on MDA-MB-435, 1.72 µM; in the experiment on UACC-257 melanoma, 1.56 µM. The GI50 is 1.66 µM in the experiment on NCI-H226 lung, 1.69 µM with SW-620 colon, 2.29 µM in the experiment with RPMI-8226 leukemia and 1.67 µM in the experiment on NCI-H23 lung. The TGI worked out at 14.7 µM in the experiment with SF-295 CNS; 3.66 µM in the experiment with HT29 colon; 3.06 µM with CAKI-1 renal; 3.83 µM in the experiment with COLO 205 colon; 3.76 µM with MDA-MB-435; 3.12 µM in the experiment with UACC-257 melanoma. Besides, the TGI in the experiment with NCI-H226 lung worked out at 3.27 µM; in the experiment on SW-620 colon it was 3.55 µM; in the experiment on RPMI-8226 leukemia it was 6.92 µM; in the experiment with NCI-H23 lung, 3.32 µM.

`CCc1nc(N)nc(N)c1-c1ccc(N(C)Cc2ccccc2)c([N+](=O)[O-])c1`: the TGI is 15.3 µM in the experiment with SF-295 CNS; 14.6 µM with HT29 colon; 25.4 µM in the experiment on CAKI-1 renal; 8.4 µM with COLO 205 colon; 17.9 µM in the experiment on MDA-MB-435; 14.2 µM in the experiment on UACC-257 melanoma. Moreover, the TGI was 23.2 µM in the experiment on NCI-H226 lung, 26.5 µM with SW-620 colon, 4.13 µM in the experiment with RPMI-8226 leukemia and 24.4 µM in the experiment with NCI-H23 lung.

Regarding `CCOC(=O)Nc1cc2c(c(N)n1)N=C(c1ccccc1)CN2`, the GI50 in the experiment with SF-295 CNS was less than 0.0001 µM; with HT29 colon, less than 0.0001 µM; with COLO 205 colon, less than 0.0001 µM; in the experiment with MDA-MB-435, less than 0.0001 µM; in the experiment on NCI-H226 lung, 0.000221 µM; in the experiment on SW-620 colon, less than 0.0001 µM. Moreover, the GI50 with RPMI-8226 leukemia and with NCI-H23 lung was less than 0.0001 µM throughout. For the same molecule, the TGI with SF-295 CNS is 13.5 µM; in the experiment with CAKI-1 renal, 27.7 µM; in the experiment with COLO 205 colon, 0.255 µM; in the experiment with MDA-MB-435 it was less than 0.0001 µM; with UACC-257 melanoma, 50.4 µM; in the experiment with SW-620 colon it was greater than 53 µM.

As to `O=[N+]([O-])c1cc(C(F)(F)F)cc2n[se]nc12`, the TGI with SF-295 CNS was determined as 25.8 µM; in the experiment with HT29 colon it was 21.9 µM; with CAKI-1 renal, 9 µM; in the experiment with COLO 205 colon, 4.21 µM; with MDA-MB-435, 4.78 µM; in the experiment with UACC-257 melanoma it was 4.56 µM. Further, the TGI in the experiment on NCI-H226 lung came out at 46.8 µM; with SW-620 colon, 3.11 µM; in the experiment with RPMI-8226 leukemia it was 2.89 µM; with NCI-H23 lung it was 9.58 µM.

Turning to `CC(C)c1ccc(C(O)(C(=O)O)c2ccc(C(C)C)cc2)cc1`, the TGI is 95.5 µM in the experiment with SF-295 CNS; greater than 100 µM in the experiment with HT29 colon; greater than 100 µM in the experiment with CAKI-1 renal; greater than 100 µM in the experiment on COLO 205 colon; greater than 100 µM in the experiment with MDA-MB-435; greater than 100 µM with UACC-257 melanoma. Also, the TGI is 54.6 µM in the experiment on NCI-H226 lung, greater than 100 µM in the experiment with SW-620 colon, 72 µM with RPMI-8226 leukemia and greater than 100 µM in the experiment on NCI-H23 lung.

Turning to `CCCCCCCCCCCCCC(=O)NO`, the TGI was 60.9 µM in the experiment on SF-295 CNS; 25.3 µM in the experiment with HT29 colon; 52.4 µM in the experiment with CAKI-1 renal; 20.1 µM in the experiment with COLO 205 colon; 67 µM with MDA-MB-435; 77.3 µM with UACC-257 melanoma. For the same molecule, the TGI was 19 µM in the experiment on NCI-H226 lung, 82.6 µM with SW-620 colon, greater than 100 µM in the experiment on RPMI-8226 leukemia and 31.1 µM with NCI-H23 lung.

Consider `N#Cc1ccc(C(=O)c2cnn(-c3ccc(F)cc3)c2N)cc1`, for which the GI50 in the experiment with SF-295 CNS, in the experiment with HT29 colon, in the experiment on CAKI-1 renal, in the experiment with COLO 205 colon, with MDA-MB-435 and in the experiment on UACC-257 melanoma was greater than 25 µM throughout. Further, the GI50 in the experiment on NCI-H226 lung, with SW-620 colon, in the experiment on RPMI-8226 leukemia and in the experiment on NCI-H23 lung was greater than 25 µM throughout. For the same molecule, the TGI in the experiment with SF-295 CNS, with HT29 colon, in the experiment on CAKI-1 renal, in the experiment on COLO 205 colon, with MDA-MB-435 and with UACC-257 melanoma was greater than 25 µM each time. In addition, the TGI with NCI-H226 lung, with SW-620 colon, in the experiment on RPMI-8226 leukemia and in the experiment on NCI-H23 lung was greater than 25 µM throughout.

As to `CN(C)c1ccc(/C=N/n2c(CCCCc3n[nH]c(=S)n3/N=C/c3ccc(N(C)C)cc3)n[nH]c2=S)cc1`, the GI50 in the experiment with SF-295 CNS, in the experiment with HT29 colon, in the experiment with CAKI-1 renal, in the experiment with COLO 205 colon, in the experiment with MDA-MB-435 and with UACC-257 melanoma was greater than 100 µM in each case. The GI50 in the experiment on NCI-H226 lung, in the experiment on SW-620 colon, in the experiment with RPMI-8226 leukemia and in the experiment on NCI-H23 lung was greater than 100 µM in each case. For the same molecule, the TGI in the experiment on SF-295 CNS, in the experiment with HT29 colon, with CAKI-1 renal, in the experiment with COLO 205 colon, in the experiment with MDA-MB-435 and in the experiment on UACC-257 melanoma was greater than 100 µM in each case. In addition, the TGI with NCI-H226 lung, in the experiment on SW-620 colon, in the experiment on RPMI-8226 leukemia and in the experiment with NCI-H23 lung was greater than 100 µM in each case.
